Source: patent US6448227B1, “Therapeutically effective substance mixture” (priority 1999, dated 2002)
Like-named read-outs stand apart in the source and are kept apart here.

Columns and labels:
HSV-1 (McIntyre Strain) = assay: HSV-1 replication in human foreskin fibroblasts (virus titre); assay type: cell-based, Herpes Simplex virus; conditions: for Virus titre: human fibroblasts; for Reduction factor: virus titre vs untreated
Method: FIG. 1A relates to the concentration of S-acetyl glutathione of 20 mM, and FIG. 1B to the concentration of 10 mM. […] With the evaluation model used, a combination index of less than 1 signifies a synergistic effect, a combination index equal to 1 an additive effect, and a combination index of greater than 1 an antagonistic effect.

VZV (Strain 4400/95) = conditions: RPE cells
[1] = S-acetyl glutathione 10 mM alone
[2] = S-acetyl glutathione 20 mM alone

`Nc1nc2c(ncn2COCCO)c(=O)[nH]1` [ACV, 9-[(2-hydroxyethoxy)methyl)guanine] was tested, and the Virus titre (HSV-1 (McIntyre Strain); ACV 0.5 μM alone) was 3.1 × 10^6 TCID60/ml, the Reduction factor (HSV-1 (McIntyre Strain); ACV 0.5 μM alone) was 6.8 and the Virus titre (HSV-1 (McIntyre Strain); ACV 1 μM alone) was 3.3 × 10^5 TCID60/ml. The Reduction factor (HSV-1 (McIntyre Strain); ACV 1 μM alone) was 64, the Virus titre (HSV-1 (McIntyre Strain); ACV 2 μM alone) was 3.8 × 10^3 TCID60/ml and the Reduction factor (HSV-1 (McIntyre Strain); ACV 2 μM alone) was 5526. For the same compound, the “Effectiveness against HSV-1” value (HSV-1 (McIntyre Strain); ACV alone, especially in the concentration of 2 μM) was “clear effectiveness”.
`CC(=O)SC[C@H](NC(=O)CC[C@H](N)C(=O)O)C(=O)NCC(=O)O` [S-acetyl glutathione] was tested, and the Virus titre (HSV-1 (McIntyre Strain); [1]) was 1.5 × 10^6 TCID60/ml, the Reduction factor (HSV-1 (McIntyre Strain); [1]) was 14 and the Virus titre (HSV-1 (McIntyre Strain); [2]) was 2.4 × 10^5 TCID60/ml. The Reduction factor (HSV-1 (McIntyre Strain); [2]) was 91, the “Concentration from which effective against HSV-1” value (HSV-1 (McIntyre Strain); S-acetyl glutathione alone) was at least 10 mM and the Plaque number (VZV (Strain 4400/95); [1]) was 59%. The Plaque number (VZV (Strain 4400/95); [2]) was 52%.
